Data reported in patent publication US20090238808A1, “Process for the identification of novel enzyme interacting compounds” (priority 2005, published 2009).

How the values were obtained:
Experiment in all cases: Kinobeads elution with test compound, mouse brain lysate, MS
Assay type in all cases: binding
Details in all cases: kinase released from kinobeads by specific elution
[1] = molecular target: AAK1 (Mus musculus, UniProt Q3UHJ0)
Description: (§1) This example illustrates competitive elution of proteins bound to kinobeads with non-modified test compounds (see particularly the fourth aspect of the invention). The kinobeads (as described in example 1) were contacted with mouse brains lysate, bound proteins were eluted with various test compounds and the released proteins were analysed by mass spectrometry.
(§2) The kinobeads were contacted with mouse brain lysate under conditions that allow the binding of the proteins in the lysate to the ligands. The binding conditions were close to physiological by choosing suitable buffer conditions preserving the function of the proteins. After removing non-captured proteins through a gentle washing procedure the bound proteins were contacted with a test compound for protein elution.
(§3) Various test compounds (see section 2.7) were used to release bound proteins following these steps:
(§4) 1. Resuspend beads with bound proteins (section 2.4) in 1×DP buffer/0.2% NP-40 as 1:3 slurry (volume/volume). 2. Transfer 20 μl the 1:3 slurry into MoBiTech columns (equivalent to 5 μl of beads). 3. Place the column into an Eppendorf tube and centrifuge it for 15 seconds at 800 rpm at 4° C. Close columns with lower lid. 4. Add 10 μl elution buffer containing 1.0 mM of the test compound (concentration ranges of 0.1 to 1.0 mM are suitable). As a control use elution buffer containing 2% DMSO or 2% DMF dependent on the solvent used for dissolving the test compound. Close column with upper lid. 5. Incubate for 30 minutes at 4° C. in an Eppendorf incubator at 700 rpm. 6. Open column (first top, then bottom), put column back into siliconized tube (SafeSeal Microcentrifuge Tubes, cat. no 11270, Sorenson BioScience, Inc.). To harvest the eluate centrifuge 2 minutes at 2.000 rpm in table top centrifuge at room temperature. The typical volume of the eluate is approximately 15 μl. 7. Add 5 μl 4× NuPAGE SDS Sample Buffer (Invitrogen, NP0007) containing 100 mM DTT (DTT has to be added just prior to use). 8. Incubate for 30 minutes at 50° C. 9. Add 1/10 volume of 200 mg/ml iodoacetamide, incubate for 30 min at room temperature, protect from light. This reaction leads to the alkylation of cysteines for mass spectrometry. 10. Before loading samples onto the gel, centrifuge samples for 5 minutes at 15.000 rpm in order to remove precipitates. 11. For protein separation apply 10 μl sample to NuPAGE 4-12% Bis-Tris gel (Invitrogen, NPO335). 2.6 Preparation of Stock Solutions used in this Protocol
(§5) Search criteria varied depending on which mass spectrometer was used for the analysis.

[2] = molecular target: CDK5 (Mus musculus, UniProt P49615)
Description: as §1, §2, §3, §4, §5

[3] = molecular target: CRIK (Mus musculus, UniProt P49025)
Description: as §1, §2, §3, §4, §5

[4] = molecular target: T1, CaMK2a (Mus musculus, UniProt P11798)
T1 construct: […]; from tissue; host or cells: mouse brain
Description: as §1, §2, §3, §4, §5

[5] = molecular target: CaMK2b (Mus musculus, UniProt P28652)
Description: as §1, §2, §3, §4, §5

[6] = molecular target: T2, CaMK2d (Mus musculus, UniProt Q6PHZ2)
T2 construct: […]; from tissue; host or cells: mouse brain
Description: as §1, §2, §3, §4, §5

[7] = molecular target: CaMKK2 (Mus musculus, UniProt Q8C078)
Description: as §1, §2, §3, §4, §5

[8] = molecular target: T3, Erk1ps5 (Mus musculus, UniProt Q63844)
T3 construct: […]; from tissue; host or cells: mouse brain
Description: as §1, §2, §3, §4, §5

[9] = molecular target: T4, Erk2 (Mus musculus, UniProt P63085)
T4 construct: […]; from tissue; host or cells: mouse brain
Description: as §1, §2, §3, §4, §5

[10] = molecular target: FER (Mus musculus, UniProt P70451)
Description: as §1, §2, §3, §4, §5

[11] = molecular target: T5, GSK3Aps (Mus musculus, UniProt Q2NL51)
T5 construct: from tissue; host or cells: mouse brain
Description: as §1, §2, §3, §4, §5

[12] = molecular target: T6, JNK2 (Mus musculus, UniProt Q9WTU6)
T6 construct: from tissue; host or cells: mouse brain
Description: as §1, §2, §3, §4, §5

[13] = molecular target: T7, MAP2K1 (Mus musculus, UniProt P31938)
T7 construct: from tissue; host or cells: mouse brain
Description: as §1, §2, §3, §4, §5

[14] = molecular target: T8, MARK2 (Mus musculus, UniProt Q05512)
T8 construct: from tissue; host or cells: mouse brain
Description: as §1, §2, §3, §4, §5

[15] = molecular target: T9, PKCg (Mus musculus, UniProt P63318)
T9 construct: from tissue; host or cells: mouse brain
Description: as §1, §2, §3, §4, §5

[16] = molecular target: T10, PYK2 (Mus musculus, UniProt Q9QVP9)
T10 construct: from tissue; host or cells: mouse brain
Description: as §1, §2, §3, §4, §5

[17] = system: T11, RSK1 (Mus musculus)
T11 construct: from tissue; host or cells: mouse brain
Description: as §1, §2, §3, §4, §5

[18] = molecular target: CaMK2g (Mus musculus, UniProt Q923T9)
Source text: (§6) This example illustrates competitive elution of proteins bound to kinobeads with non-modified test compounds (see particularly the fourth aspect of the invention).
as §2, §3
as §4, with “Open column (first top, then bottom), put column back into siliconized tube (SafeSeal Microcentrifuge Tubes, cat. no 11270, Sorenson BioScience, Inc.).” left out, “For protein separation apply 10 μl sample to NuPAGE 4-12% Bis-Tris gel (Invitrogen, NPO335).” left out
as §5

[19] = molecular target: T12, GSK3B (Mus musculus, UniProt Q9WV60)
T12 construct: from tissue; host or cells: mouse brain
Source text: as §6, §2, §3
as §4, with “Open column (first top, then bottom), put column back into siliconized tube (SafeSeal Microcentrifuge Tubes, cat. no 11270, Sorenson BioScience, Inc.).” left out, “For protein separation apply 10 μl sample to NuPAGE 4-12% Bis-Tris gel (Invitrogen, NPO335).” left out
as §5

[20] = molecular target: T13, JNK1 (Mus musculus, UniProt Q91Y86)
T13 construct: from tissue; host or cells: mouse brain
Description: as §1, §2, §3, §4, §5

[21] = molecular target: T14, JNK3 (Mus musculus, UniProt Q61831)
T14 construct: from tissue; host or cells: mouse brain
Description: as §1, §2, §3, §4, §5

[22] = molecular target: T15, p38a (Mus musculus, UniProt P47811)
T15 construct: from tissue; host or cells: mouse brain
Description: as §1, §2, §3, §4, §5

[23] = molecular target: T16, p38b (Mus musculus, UniProt Q9WUI1)
T16 construct: from tissue; host or cells: mouse brain
Description: as §1, §2, §3, §4, §5

T6 sequence (Q9WTU6 whole entry): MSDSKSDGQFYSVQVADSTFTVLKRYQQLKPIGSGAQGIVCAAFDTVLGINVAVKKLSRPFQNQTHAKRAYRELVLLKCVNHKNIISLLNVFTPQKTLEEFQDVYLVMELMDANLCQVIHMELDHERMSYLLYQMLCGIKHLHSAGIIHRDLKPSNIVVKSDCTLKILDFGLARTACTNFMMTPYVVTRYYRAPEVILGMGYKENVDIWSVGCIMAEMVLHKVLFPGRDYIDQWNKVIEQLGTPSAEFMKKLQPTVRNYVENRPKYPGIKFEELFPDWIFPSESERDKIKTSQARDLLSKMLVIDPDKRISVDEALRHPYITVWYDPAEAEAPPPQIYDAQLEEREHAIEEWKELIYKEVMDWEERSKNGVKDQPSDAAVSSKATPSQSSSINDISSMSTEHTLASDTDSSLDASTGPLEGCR
Chain of CDK5 (P49615 whole entry): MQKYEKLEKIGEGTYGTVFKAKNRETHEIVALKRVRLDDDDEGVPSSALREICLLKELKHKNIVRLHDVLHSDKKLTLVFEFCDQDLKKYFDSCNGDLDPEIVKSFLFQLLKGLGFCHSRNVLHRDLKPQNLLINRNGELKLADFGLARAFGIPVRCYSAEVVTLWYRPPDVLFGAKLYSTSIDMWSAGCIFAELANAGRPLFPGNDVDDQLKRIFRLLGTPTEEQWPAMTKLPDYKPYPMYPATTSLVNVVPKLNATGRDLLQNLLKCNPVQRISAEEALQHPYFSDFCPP
T5 sequence (Q2NL51 2-490 limits assumed): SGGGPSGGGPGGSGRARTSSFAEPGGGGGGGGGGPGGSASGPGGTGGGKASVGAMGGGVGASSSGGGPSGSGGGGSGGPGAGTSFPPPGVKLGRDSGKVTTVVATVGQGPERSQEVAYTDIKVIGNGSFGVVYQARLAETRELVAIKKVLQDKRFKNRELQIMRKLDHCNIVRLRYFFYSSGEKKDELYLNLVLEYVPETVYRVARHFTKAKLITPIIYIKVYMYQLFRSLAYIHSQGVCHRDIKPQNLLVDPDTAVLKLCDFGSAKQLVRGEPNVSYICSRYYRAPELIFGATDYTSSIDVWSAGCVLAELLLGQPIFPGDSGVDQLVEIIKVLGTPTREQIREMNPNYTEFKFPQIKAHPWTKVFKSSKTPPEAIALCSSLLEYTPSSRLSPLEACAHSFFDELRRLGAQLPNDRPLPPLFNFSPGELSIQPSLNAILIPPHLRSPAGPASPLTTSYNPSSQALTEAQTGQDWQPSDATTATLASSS
T4 sequence (P63085 whole entry): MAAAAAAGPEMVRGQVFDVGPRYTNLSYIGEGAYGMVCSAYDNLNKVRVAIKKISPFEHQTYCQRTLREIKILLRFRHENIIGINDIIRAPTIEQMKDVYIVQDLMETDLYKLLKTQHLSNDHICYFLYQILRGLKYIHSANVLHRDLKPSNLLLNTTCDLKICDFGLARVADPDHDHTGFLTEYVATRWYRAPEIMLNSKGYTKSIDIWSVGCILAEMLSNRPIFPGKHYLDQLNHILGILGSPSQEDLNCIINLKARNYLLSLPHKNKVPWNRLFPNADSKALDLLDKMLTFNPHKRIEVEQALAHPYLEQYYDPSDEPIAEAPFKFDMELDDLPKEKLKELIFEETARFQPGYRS
T12 sequence (Q9WV60 whole entry): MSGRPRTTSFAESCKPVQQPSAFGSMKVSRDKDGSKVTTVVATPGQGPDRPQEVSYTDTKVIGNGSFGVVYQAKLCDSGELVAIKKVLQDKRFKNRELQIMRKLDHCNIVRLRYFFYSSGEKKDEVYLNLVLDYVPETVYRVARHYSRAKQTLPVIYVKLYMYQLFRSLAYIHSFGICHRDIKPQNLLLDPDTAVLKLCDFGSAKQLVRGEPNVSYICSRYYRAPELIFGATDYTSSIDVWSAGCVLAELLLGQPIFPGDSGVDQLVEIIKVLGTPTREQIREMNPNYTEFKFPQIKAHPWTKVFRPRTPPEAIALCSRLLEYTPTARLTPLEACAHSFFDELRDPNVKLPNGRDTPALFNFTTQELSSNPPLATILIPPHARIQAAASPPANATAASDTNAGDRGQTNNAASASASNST
Chain of AAK1 (Q3UHJ0 whole entry): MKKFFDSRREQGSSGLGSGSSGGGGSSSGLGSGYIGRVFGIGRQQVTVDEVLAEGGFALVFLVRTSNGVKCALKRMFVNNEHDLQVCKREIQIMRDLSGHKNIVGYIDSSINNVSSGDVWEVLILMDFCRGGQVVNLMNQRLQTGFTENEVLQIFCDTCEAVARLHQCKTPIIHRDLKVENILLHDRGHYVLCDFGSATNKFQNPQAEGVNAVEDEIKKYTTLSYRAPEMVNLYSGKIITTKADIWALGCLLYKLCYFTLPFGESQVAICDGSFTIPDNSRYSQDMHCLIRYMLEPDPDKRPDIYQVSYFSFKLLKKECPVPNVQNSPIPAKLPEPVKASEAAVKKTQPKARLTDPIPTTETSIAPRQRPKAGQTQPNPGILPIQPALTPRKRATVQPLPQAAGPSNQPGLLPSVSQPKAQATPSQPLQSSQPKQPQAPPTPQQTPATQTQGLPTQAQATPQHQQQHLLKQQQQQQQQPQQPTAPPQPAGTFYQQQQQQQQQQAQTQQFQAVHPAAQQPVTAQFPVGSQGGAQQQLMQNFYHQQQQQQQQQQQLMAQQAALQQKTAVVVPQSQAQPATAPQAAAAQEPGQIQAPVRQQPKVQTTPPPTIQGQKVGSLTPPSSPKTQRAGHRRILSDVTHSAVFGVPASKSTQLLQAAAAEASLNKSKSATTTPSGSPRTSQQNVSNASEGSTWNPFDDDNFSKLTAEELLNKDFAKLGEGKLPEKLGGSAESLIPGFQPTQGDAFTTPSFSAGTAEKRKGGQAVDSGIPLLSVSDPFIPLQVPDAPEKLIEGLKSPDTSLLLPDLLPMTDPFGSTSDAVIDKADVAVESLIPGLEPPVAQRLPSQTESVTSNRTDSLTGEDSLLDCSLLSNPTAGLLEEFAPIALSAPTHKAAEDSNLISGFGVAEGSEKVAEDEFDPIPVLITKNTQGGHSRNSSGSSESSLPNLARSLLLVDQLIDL
T7 sequence (P31938 whole entry): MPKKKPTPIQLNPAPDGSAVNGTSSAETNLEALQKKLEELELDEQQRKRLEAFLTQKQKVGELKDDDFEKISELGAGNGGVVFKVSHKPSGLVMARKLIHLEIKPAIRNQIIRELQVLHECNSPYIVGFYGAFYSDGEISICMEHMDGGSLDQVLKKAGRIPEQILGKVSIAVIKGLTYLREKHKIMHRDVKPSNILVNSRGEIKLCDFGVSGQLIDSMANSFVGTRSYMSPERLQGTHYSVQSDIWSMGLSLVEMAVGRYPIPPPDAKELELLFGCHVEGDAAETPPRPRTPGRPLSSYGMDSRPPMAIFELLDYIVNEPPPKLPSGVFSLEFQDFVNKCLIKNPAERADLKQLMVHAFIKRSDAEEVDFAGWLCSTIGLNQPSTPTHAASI
T1 sequence (P11798 whole entry): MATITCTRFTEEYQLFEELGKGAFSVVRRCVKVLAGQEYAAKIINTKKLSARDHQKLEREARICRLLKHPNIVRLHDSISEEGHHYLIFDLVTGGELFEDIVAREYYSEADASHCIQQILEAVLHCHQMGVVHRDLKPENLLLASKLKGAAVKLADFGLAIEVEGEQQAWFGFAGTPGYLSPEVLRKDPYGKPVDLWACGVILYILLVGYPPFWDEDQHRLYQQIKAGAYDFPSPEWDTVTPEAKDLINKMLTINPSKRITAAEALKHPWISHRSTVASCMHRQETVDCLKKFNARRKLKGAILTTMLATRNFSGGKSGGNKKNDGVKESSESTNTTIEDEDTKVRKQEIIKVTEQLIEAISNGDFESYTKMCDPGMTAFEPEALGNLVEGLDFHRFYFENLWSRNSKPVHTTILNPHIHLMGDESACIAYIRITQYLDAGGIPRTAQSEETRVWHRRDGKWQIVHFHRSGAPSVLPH
Chain of CaMKK2 (Q8C078 whole entry): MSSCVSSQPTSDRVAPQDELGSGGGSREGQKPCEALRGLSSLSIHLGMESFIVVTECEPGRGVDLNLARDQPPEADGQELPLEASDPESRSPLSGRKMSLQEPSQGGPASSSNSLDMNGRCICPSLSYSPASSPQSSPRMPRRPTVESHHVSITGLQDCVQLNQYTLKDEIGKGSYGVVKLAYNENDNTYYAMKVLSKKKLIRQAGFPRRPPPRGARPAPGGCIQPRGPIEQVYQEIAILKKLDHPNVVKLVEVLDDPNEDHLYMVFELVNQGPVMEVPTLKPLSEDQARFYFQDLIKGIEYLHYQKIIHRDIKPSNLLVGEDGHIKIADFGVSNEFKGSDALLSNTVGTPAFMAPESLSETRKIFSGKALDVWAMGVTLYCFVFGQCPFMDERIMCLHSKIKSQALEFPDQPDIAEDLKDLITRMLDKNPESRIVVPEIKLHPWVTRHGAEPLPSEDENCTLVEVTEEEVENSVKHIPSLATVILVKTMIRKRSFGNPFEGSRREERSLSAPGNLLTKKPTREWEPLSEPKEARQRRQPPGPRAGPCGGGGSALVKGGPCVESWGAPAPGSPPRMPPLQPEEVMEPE
T16 sequence (Q9WUI1 whole entry): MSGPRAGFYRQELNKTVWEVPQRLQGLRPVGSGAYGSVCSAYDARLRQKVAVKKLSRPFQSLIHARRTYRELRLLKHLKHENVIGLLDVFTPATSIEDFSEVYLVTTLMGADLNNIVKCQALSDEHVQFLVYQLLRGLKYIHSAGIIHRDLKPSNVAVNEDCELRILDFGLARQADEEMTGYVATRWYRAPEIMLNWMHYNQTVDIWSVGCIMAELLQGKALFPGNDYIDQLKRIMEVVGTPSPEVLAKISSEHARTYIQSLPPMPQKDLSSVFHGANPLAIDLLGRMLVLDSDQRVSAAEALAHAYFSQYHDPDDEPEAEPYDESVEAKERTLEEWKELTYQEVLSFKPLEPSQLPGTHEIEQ

Q: For `NCCCn1cc(C2=C(c3c[nH]c4ccccc34)C(=O)NC2=O)c2ccccc21` [CZC1038, Bisindolylmaleimide III, reference compound], which “mass spectrometry score, AAK1” value [1] is on record?
A: 562

Q: What about the “number of identified peptides, AAK1” value [1] of the same compound?
A: 38

Q: What about the “mass spectrometry score, CDK5” value [2] of the same compound?
A: 831

Q: What about the “number of identified peptides, CDK5” value [2] of the same compound?
A: 19

Q: And the “mass spectrometry score, CR1K” value [3]?
A: 90

Q: What about the “number of identified peptides, CR1K” value [3] of the same compound?
A: 5

Q: And the “mass spectrometry score, CaMK2a” value [4]?
A: 911

Q: And the “number of identified peptides, CaMK2a” value [4]?
A: 53

Q: And the “mass spectrometry score, CaMK2b” value [5]?
A: 834

Q: And the “number of identified peptides, CaMK2b” value [5]?
A: 52

Q: What about the “mass spectrometry score, CaMK2d” value [6] of the same compound?
A: 702

Q: What about the “number of identified peptides, CaMK2d” value [6] of the same compound?
A: 17

Q: What about the “mass spectrometry score, CaMKK2” value [7] of the same compound?
A: 314

Q: And the “number of identified peptides, CaMKK2” value [7]?
A: 6

Q: And the “mass spectrometry score, Erk1ps5” value [8]?
A: 418

Q: And the “number of identified peptides, Erk1ps5” value [8]?
A: 14

Q: What about the “mass spectrometry score, Erk2” value [9] of the same compound?
A: 754

Q: And the “number of identified peptides, Erk2” value [9]?
A: 50

Q: And the “mass spectrometry score, FER” value [10]?
A: 237

Q: And the “number of identified peptides, FER” value [10]?
A: 6

Q: And the “mass spectrometry score, GSK3Aps” value [11]?
A: 1232

Q: What about the “number of identified peptides, GSK3Aps” value [11] of the same compound?
A: 60

Q: What about the “mass spectrometry score, JNK2” value [12] of the same compound?
A: 287

Q: What about the “number of identified peptides, JNK2” value [12] of the same compound?
A: 11

Q: What about the “mass spectrometry score, MAP2K1” value [13] of the same compound?
A: 208

Q: What about the “number of identified peptides, MAP2K1” value [13] of the same compound?
A: 6

Q: And the “mass spectrometry score, MARK2” value [14]?
A: 49

Q: And the “number of identified peptides, MARK2” value [14]?
A: 1

Q: And the “mass spectrometry score, PKCg” value [15]?
A: 107

Q: What about the “number of identified peptides, PKCg” value [15] of the same compound?
A: 2

Q: What about the “mass spectrometry score, PYK2” value [16] of the same compound?
A: 291

Q: And the “number of identified peptides, PYK2” value [16]?
A: 7

Q: And the “mass spectrometry score, RSK1” value [17]?
A: 292

Q: What about the “number of identified peptides, RSK1” value [17] of the same compound?
A: 7

Q: And the “mass spectrometry score, CaMK2g” value [18]?
A: 550

Q: What about the “number of identified peptides, CaMK2g” value [18] of the same compound?
A: 18

Q: And the “mass spectrometry score, GSK3B” value [19]?
A: 1176

Q: And the “number of identified peptides, GSK3B” value [19]?
A: 54

Q: `Oc1ccc(-c2nc(-c3ccc(F)cc3)c(-c3ccncc3)[nH]2)cc1` [CZC7098] was tested. Which “mass spectrometry score, AAK1” value [1] did it give?
A: 198

Q: And the “number of identified peptides, AAK1” value [1]?
A: 4

Q: What about the “mass spectrometry score, CDK5” value [2] of the same compound?
A: 166

Q: What about the “number of identified peptides, CDK5” value [2] of the same compound?
A: 4

Q: And the “mass spectrometry score, Erk2” value [9]?
A: 506

Q: And the “number of identified peptides, Erk2” value [9]?
A: 20

Q: What about the “mass spectrometry score, GSK3Aps” value [11] of the same compound?
A: 406

Q: And the “number of identified peptides, GSK3Aps” value [11]?
A: 8

Q: What about the “mass spectrometry score, JNK1” value [20] of the same compound?
A: 540

Q: What about the “number of identified peptides, JNK1” value [20] of the same compound?
A: 19

Q: And the “mass spectrometry score, JNK2” value [12]?
A: 170

Q: What about the “number of identified peptides, JNK2” value [12] of the same compound?
A: 5

Q: And the “mass spectrometry score, JNK3” value [21]?
A: 542

Q: What about the “number of identified peptides, JNK3” value [21] of the same compound?
A: 30

Q: What about the “mass spectrometry score, p38a” value [22] of the same compound?
A: 295

Q: And the “number of identified peptides, p38a” value [22]?
A: 10

Q: What about the “mass spectrometry score, p38b” value [23] of the same compound?
A: 80

Q: What about the “number of identified peptides, p38b” value [23] of the same compound?
A: 2

Q: What about the “mass spectrometry score, GSK3B” value [19] of the same compound?
A: 743

Q: What about the “number of identified peptides, GSK3B” value [19] of the same compound?
A: 34
